Peptide text beside a SMILES is read from it.
Legend:
[1] = tested on: West Nile virus; assay: Ratio of kcat to Km for West Nile Virus NS2B-NS3 protease expressed in Escherichia coli BL21 (DE3) after 1 hr by colorimetric assay
[2] = tested on: West Nile virus; assay: Activity at West Nile Virus NS2B-NS3 protease expressed in Escherichia coli BL21 (DE3) after 1 hr by colorimetric assay
[3] = tested on: West Nile virus; assay: Ratio of kcat to Km for West Nile Virus NS2B-NS3 protease expressed in Escherichia coli BL21 (DE3) after 1 hr by FRET assay
[4] = tested on: West Nile virus; assay: Activity at West Nile Virus NS2B-NS3 protease expressed in Escherichia coli BL21 (DE3) after 1 hr by FRET assay

For `COc1ccc2c(CC(=O)N[C@@H](CCCCN)C(=O)N[C@@H](CCCCN)C(=O)N[C@@H](CCCNC(=N)N)C(=O)NCC(=O)NCC(Nc3ccc([N+](=O)[O-])cc3[N+](=O)[O-])C(=O)N[C@@H](C)C(=O)N[C@@H](CCCCN)C(N)=O)cc(=O)oc2c1` (stereo partly specified) (HELM PEPTIDE1{[COc1ccc2c(CC(=O)[*:2])cc(=O)oc2c1].K.K.R.G.[C[C@H](NC(=O)C(CN[*:1])Nc1ccc([N+](=O)[O-])cc1[N+](=O)[O-])C(=O)N[C@@H](CCCCN)C(N)=O]}$$$$V2.0), the kcat/Km [1] was 3760 M⁻¹ s⁻¹, the Km [2] was 69.9 µM and the kcat [2] was 0.263 s⁻¹. It also gave a kcat/Km [3] of 21400 M⁻¹ s⁻¹, a Km [4] of 3.35 µM and a kcat [4] of 0.0717 s⁻¹.
